Assay results reported in patent US20250296938A1, “Compounds that Interact with the Ras Superfamily for the Treatment of Cancers, Inflammatory Diseases, Rasopathies, and Fibrotic Disease” (SHY Therapeutics, LLC, priority 2018, published 2025).

Experiments:
Experiment in all cases: Cell proliferation assay (DAPI)
Format in all cases: cell-based
[1] = tested on: BxPC3 pancreatic cancer cell line; settings: Homo sapiens, BXPC-3
Method in brief: (§1)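 NCI-H1975 cells in RPMI; PANC-1 and MIA PaCa-2 in DMEM-high glucose; BxPC3 in RPMI; all with 10% FBS. Compounds at 10 µM final (or serial dilutions for IC50), 0.3% DMSO, 2–4 days at 37 °C. Fixed, DAPI-stained, fluorescence read at 358/461 nm to give proliferation inhibition.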

[2] = tested on: MIA PaCa-2 pancreatic cancer cell line; settings: Homo sapiens, MIA PaCa-2; for inhibition at 10 µM: 2-4 days, read-out: % Inhibition of cell proliferation, MIA PaCa-2 % inh
Method in brief: as §1

[3] = tested on: PANC-1 pancreatic cancer cell line; settings: Homo sapiens
Method in brief: as §1

[4] = tested on: NCI H1299 non-small-cell lung cancer cell line; settings: Homo sapiens
[5] = tested on: NCI H1975 non-small-cell lung cancer cell line; settings: Homo sapiens
Method in brief: as §1

Compound COCC(C)Nc1nc(-c2nccn2C)nc2sc(-c3ccn(C)n3)c(-c3ccccc3)c12 (centres unmarked) [drawing 544] has an IC50 [1] of 750 to 1000 nM, an IC50 [2] of over 1000 nM and an inhibition at 10 µM [2] of 76 to 100%. It also gave an IC50 [3] of 750 to 1000 nM.
COC1CCN(c2nc(-c3nccn3C)nc3sc(-c4ccn(C)n4)c(-c4ccccc4)c23)C1 (centres unmarked) [drawing 545] showed an IC50 [1] of over 1000 nM, an IC50 [2] of over 1000 nM and an inhibition at 10 µM [2] of 76 to 100%. For the same compound, the IC50 [3] was 750 to 1000 nM.
With Cn1ccc(-c2sc3nc(-c4nccn4C)nc(NCC4CCOC4)c3c2-c2ccccc2)n1 (centres unmarked) [drawing 547] the IC50 [1] was over 1000 nM, the IC50 [2] was over 1000 nM and the inhibition at 10 µM [2] was 76 to 100%. For the same compound, the IC50 [3] was over 1000 nM.
CO[C@H]1CCC(Nc2nc(-c3nccn3C)nc3sc(-c4ccn(C)n4)c(-c4ccccc4)c23)C1 (some centres unmarked) [drawing 548] showed an IC50 [1] of 500 to 749 nM, an IC50 [2] of 500 to 749 nM and an inhibition at 10 µM [2] of 76 to 100%. The IC50 [4] was 750 to 1000 nM, the IC50 [5] was 500 to 749 nM and the IC50 [3] was 500 to 749 nM.
Compound CO[C@@H]1CCC(Nc2nc(-c3nccn3C)nc3sc(-c4ccn(C)n4)c(-c4ccccc4)c23)C1 (some centres unmarked) [drawing 549] has an IC50 [1] of 750 to 1000 nM, an IC50 [2] of 750 to 1000 nM and an inhibition at 10 µM [2] of 76 to 100%. The IC50 [4] was 750 to 1000 nM, the IC50 [5] was 750 to 1000 nM and the IC50 [3] was 750 to 1000 nM.
COCC1CCN(c2nc(-c3nccn3C)nc3sc(-c4ccn(C)n4)c(-c4ccccc4)c23)C1 (centres unmarked) [drawing 550] showed an IC50 [1] of 750 to 1000 nM, an IC50 [2] of 750 to 1000 nM and an inhibition at 10 µM [2] of 76 to 100%. The IC50 [4] was over 1000 nM, the IC50 [5] was over 1000 nM and the IC50 [3] was 500 to 749 nM.
COCC(C)Nc1nc(-c2nccn2C)nc2sc(-c3ccccc3Cl)c(-c3cscn3)c12 (centres unmarked) [drawing 556] gave an inhibition at 10 µM [2] of 76 to 100%, an IC50 [4] of over 1000 nM and an IC50 [5] of over 1000 nM.
COCC(C)Nc1nc(-c2nccn2C)nc2sc(-c3cccc(OC)c3)c(-c3cscn3)c12 (centres unmarked) [drawing 558] showed an inhibition at 10 µM [2] of 76 to 100%, an IC50 [4] of over 1000 nM and an IC50 [5] of over 1000 nM. For the same compound, the IC50 [3] was 750 to 1000 nM.
Work on COCCNc1nc(-c2nccn2C)nc2sc(-c3ccccc3Cl)c(-c3ccc(OC)cc3)c12 [drawing 560] yielded an IC50 [2] of over 1000 nM, an inhibition at 10 µM [2] of 76 to 100% and an IC50 [5] of 750 to 1000 nM.
With COCCNc1nc(-c2nccn2C)nc2sc(-c3cccc(OC)c3)c(-c3ccc(OC)cc3)c12 [drawing 561] the IC50 [2] was over 1000 nM, the inhibition at 10 µM [2] was 76 to 100% and the IC50 [5] was over 1000 nM.
Compound COCCNc1nc(-c2nccn2C)nc2sc(-c3cccc(OC)c3Cl)c(-c3ccc(OC)cc3)c12 [drawing 562] has an IC50 [1] of 750 to 1000 nM, an IC50 [2] of 750 to 1000 nM and an inhibition at 10 µM [2] of 76 to 100%. For the same compound, the IC50 [4] was 750 to 1000 nM, the IC50 [5] was 750 to 1000 nM and the IC50 [3] was 500 to 749 nM.
COCCNc1nc(-c2cn(C)cn2)nc2sc(-c3ccccc3Cl)c(-c3ccc(OC)cc3)c12 [drawing 564] was tested, and the IC50 [2] was over 1000 nM, the inhibition at 10 µM [2] was 76 to 100% and the IC50 [5] was over 1000 nM.
COCCNc1nc(-c2nccn2C)nc2sc(-c3cccc(OC)c3Cl)c(-c3ccccc3)c12 [drawing 567] showed an IC50 [2] of 750 to 1000 nM, an inhibition at 10 µM [2] of 76 to 100% and an IC50 [5] of 750 to 1000 nM. The IC50 [3] was 750 to 1000 nM.
